Measured values published in patent US9708286B2, “Ingenol-3-acylates III and ingenol-3-carbamates” (LEO Laboratories Limited, priority 2010, dated 2017).

What was measured:
Format in all cases: cell-based
[1] = tested on: Primary human epidermal keratinocytes, HeKa; experiment: HeKa cytokine release (IL-8); settings: Homo sapiens, HEKa, 6 h, read-out: HeKa cytokine release (IL-8) Rel EC50 range
How it was run: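 Seeded cells exposed to compound dilutions for 6 h at 37° C; IL-8 in supernatant quantified by MSD sandwich electrochemiluminescence immunoassay. Effects normalized to positive control (1.5×10^−7 M PEP0005), four-parameter sigmoidal fit; Rel EC50 is concentration midway between fitted top and bottom.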

HeLa cells = experiment: Necrosis assay; settings: Homo sapiens, HeLa, 0.5 h, read-out: HeLa necrosis EC50 range
How it was run: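 HeLa cells treated with compound at 10 μM to 400 μM (final) for 30 min at 37° C., viability then measured by PrestoBlue fluorescence (ex 535/em 630 nm). Normalized to 1% DMSO and 400 μM ingenol mebutate controls; AbsEC50 from four-parameter sigmoidal fit.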

[2] = tested on: PMN's (polymorphonuclear leukocytes); experiment: Neutrophil oxidative burst; settings: Leukocyte, 40 min, read-out: Neutrophil oxidative burst Rel EC50 range, PMN from buffy coats, 40 min at RT, hydroethidine fluorescence; normalized to 5×10^−7 M PEP0005
How it was run: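 Human buffy-coat neutrophils (2.5×10^5/well) in HBSS with 0.1% BSA, 5 mM glucose treated with compound premixed with 10 μM hydroethidine for 40 min at RT; fluorescence read at 485/579 nm. Normalized to 5×10^−7 M PEP0005; Rel EC50 is midway between fitted top and bottom, Abs EC50 gives 50% of PEP0005 maximum.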

Compound	EC50 [1] [µM]	EC50 (HeLa cells) [µM]	EC50 [2] [µM]
CC1=C[C@]23C(=O)[C@@H](C=C(CO)[C@@H](O)[C@]2(O)[C@H]1OC(=O)c1c(C)nn(Cc2ccccc2)c1C)[C@H]1[C@@H](C[C@H]3C)C1(C)C [Compound 560, Ingenol 3-(1-benzyl-3,5-dimethyl-pyrazole-4-carboxylate)]	< 0.02	< 150	< 0.02
CC1=C[C@]23C(=O)[C@@H](C=C(CO)[C@@H](O)[C@]2(O)[C@H]1OC(=O)c1c2c(nn1C)CCCC2)[C@H]1[C@@H](C[C@H]3C)C1(C)C [Compound 563, Ingenol 3-(2-methyl-4,5,6,7-tetrahydroindazole-3-carboxylate)]	< 0.02	< 150	< 0.02
CC1=C[C@]23C(=O)[C@@H](C=C(CO)[C@@H](O)[C@]2(O)[C@H]1OC(=O)c1c(C)n(C)c2ccccc12)[C@H]1[C@@H](C[C@H]3C)C1(C)C [Compound 564, Ingenol 3-(1,2-dimethylindole-3-carboxylate)]	< 0.02	< 150	< 0.02
COc1ccc2c(c1)c(C(=O)O[C@H]1C(C)=C[C@]34C(=O)[C@@H](C=C(CO)[C@@H](O)[C@]13O)[C@H]1[C@@H](C[C@H]4C)C1(C)C)c(C)n2C [Compound 565, Ingenol 3-(5-methoxy-1,2-dimethyl-indole-3-carboxylate)]	< 0.02	< 150	< 0.02
CC1=C[C@]23C(=O)[C@@H](C=C(CO)[C@@H](O)[C@]2(O)[C@H]1OC(=O)c1c(C)nn(C)c1C)[C@H]1[C@@H](C[C@H]3C)C1(C)C [Compound 566, Ingenol 3-(1,3,5-trimethylpyrazole-4-carboxylate)]	0.02 to 0.1	> 350	0.02 to 0.1
CC1=C[C@]23C(=O)[C@@H](C=C(CO)[C@@H](O)[C@]2(O)[C@H]1OC(=O)c1nonc1C)[C@H]1[C@@H](C[C@H]3C)C1(C)C [Compound 567, Ingenol 3-(4-methyl-1,2,5-oxadiazole-3-carboxylate)]	> 0.1	> 350	0.02 to 0.1
COc1nc(C)c(C(=O)O[C@H]2C(C)=C[C@]34C(=O)[C@@H](C=C(CO)[C@@H](O)[C@]23O)[C@H]2[C@@H](C[C@H]4C)C2(C)C)s1 [Compound 568, Ingenol 3-(2-methoxy-4-methyl-thiazole-5-carboxylate)]	0.02 to 0.1	150 to 350	0.02 to 0.1
CC1=C[C@]23C(=O)[C@@H](C=C(CO)[C@@H](O)[C@]2(O)[C@H]1OC(=O)c1nn(C)cc1Br)[C@H]1[C@@H](C[C@H]3C)C1(C)C [Compound 570, Ingenol 3-(4-bromo-1-methyl-pyrazole-3-carboxylate)]	> 0.1	150 to 350	0.02 to 0.1
CC1=C[C@]23C(=O)[C@@H](C=C(CO)[C@@H](O)[C@]2(O)[C@H]1OC(=O)c1c(C)c2ccccc2n1C)[C@H]1[C@@H](C[C@H]3C)C1(C)C [Compound 571, Ingenol 3-(1,3-dimethylindole-2-carboxylate)]	< 0.02	< 150	< 0.02
COc1ccc2c(c1)c(C)c(C(=O)O[C@H]1C(C)=C[C@]34C(=O)[C@@H](C=C(CO)[C@@H](O)[C@]13O)[C@H]1[C@@H](C[C@H]4C)C1(C)C)n2C [Compound 572, Ingenol 3-(5-methoxy-1,3-dimethyl-indole-2-carboxylate)]	< 0.02	< 150	< 0.02
CC1=C[C@]23C(=O)[C@@H](C=C(CO)[C@@H](O)[C@]2(O)[C@H]1OC(=O)c1c(-c2ccccc2)c2ccccc2n1C)[C@H]1[C@@H](C[C@H]3C)C1(C)C [Compound 574, Ingenol 3-(1-methyl-3-phenyl-indole-2-carboxylate)]	< 0.02	< 150	< 0.02
CC1=C[C@]23C(=O)[C@@H](C=C(CO)[C@@H](O)[C@]2(O)[C@H]1OC(=O)c1c(C)noc1C(F)(F)F)[C@H]1[C@@H](C[C@H]3C)C1(C)C [Compound 575, Ingenol 3-(3-methyl-5-(trifluoromethyl)isoxazole-4-carboxylate)]	< 0.02	< 150	< 0.02
CC1=C[C@]23C(=O)[C@@H](C=C(CO)[C@@H](O)[C@]2(O)[C@H]1OC(=O)c1c(C)ccn1C)[C@H]1[C@@H](C[C@H]3C)C1(C)C [Compound 576, Ingenol 3-(1,3-dimethylpyrrole-2-carboxylate)]	< 0.02	< 150	< 0.02
CC1=C[C@]23C(=O)[C@@H](C=C(CO)[C@@H](O)[C@]2(O)[C@H]1OC(=O)c1c(C)nn(CC(F)(F)F)c1C)[C@H]1[C@@H](C[C@H]3C)C1(C)C [Compound 577, Ingenol 3-(3,5-dimethyl-1-(2,2,2-trifluoroethyl)pyrazole-4-carboxylate)]	< 0.02	150 to 350	0.02 to 0.1
CC1=C[C@]23C(=O)[C@@H](C=C(CO)[C@@H](O)[C@]2(O)[C@H]1OC(=O)c1cc(C)n(C2CC2)c1C)[C@H]1[C@@H](C[C@H]3C)C1(C)C [Compound 578, Ingenol 3-(1-cyclopropyl-2,5-dimethyl-pyrrole-3-carboxylate)]	< 0.02	< 150	< 0.02
CC1=C[C@]23C(=O)[C@@H](C=C(CO)[C@@H](O)[C@]2(O)[C@H]1OC(=O)c1cc(C)n(C)c1C)[C@H]1[C@@H](C[C@H]3C)C1(C)C [Compound 579, Ingenol 3-(1,2,5-trimethylpyrrole-3-carboxylate)]	< 0.02	150 to 350	< 0.02
CC1=C[C@]23C(=O)[C@@H](C=C(CO)[C@@H](O)[C@]2(O)[C@H]1OC(=O)c1c(C)c[nH]c1C)[C@H]1[C@@H](C[C@H]3C)C1(C)C [Compound 580, Ingenol 3-(2,4-dimethyl-1H-pyrrole-3-carboxylate)]	> 0.1	150 to 350	> 0.1
CC1=C[C@]23C(=O)[C@@H](C=C(CO)[C@@H](O)[C@]2(O)[C@H]1OC(=O)c1cccn1C)[C@H]1[C@@H](C[C@H]3C)C1(C)C [Compound 581, Ingenol 3-(1-methylpyrrole-2-carboxylate)]	< 0.02	150 to 350	< 0.02
CC1=C[C@]23C(=O)[C@@H](C=C(CO)[C@@H](O)[C@]2(O)[C@H]1OC(=O)c1cc(C)c[nH]1)[C@H]1[C@@H](C[C@H]3C)C1(C)C [Compound 582, Ingenol 3-(4-methyl-1H-pyrrole-2-carboxylate)]	< 0.02	150 to 350	< 0.02
CC1=C[C@]23C(=O)[C@@H](C=C(CO)[C@@H](O)[C@]2(O)[C@H]1OC(=O)c1ccc(C)n1C)[C@H]1[C@@H](C[C@H]3C)C1(C)C [Compound 583, Ingenol 3-(1,5-dimethylpyrrole-2-carboxylate)]	< 0.02	150 to 350	< 0.02
CC1=C[C@]23C(=O)[C@@H](C=C(CO)[C@@H](O)[C@]2(O)[C@H]1OC(=O)c1[nH]ccc1C)[C@H]1[C@@H](C[C@H]3C)C1(C)C [Compound 584, Ingenol 3-(3-methyl-1H-pyrrole-2-carboxylate)]	< 0.02	150 to 350	< 0.02
CC1=C[C@]23C(=O)[C@@H](C=C(CO)[C@@H](O)[C@]2(O)[C@H]1OC(=O)c1cccn1C1CC1)[C@H]1[C@@H](C[C@H]3C)C1(C)C [Compound 585, Ingenol 3-(1-cyclopropylpyrrole-2-carboxylate)]	< 0.02	< 150	< 0.02
CCn1cc(C)c(C(=O)O[C@H]2C(C)=C[C@]34C(=O)[C@@H](C=C(CO)[C@@H](O)[C@]23O)[C@H]2[C@@H](C[C@H]4C)C2(C)C)c1C [Compound 586, Ingenol 3-(1-ethyl-2,4-dimethyl-pyrrole-3-carboxylate)]	< 0.02	< 150	< 0.02
C=CCn1cc(C)c(C(=O)O[C@H]2C(C)=C[C@]34C(=O)[C@@H](C=C(CO)[C@@H](O)[C@]23O)[C@H]2[C@@H](C[C@H]4C)C2(C)C)c1C [Compound 587, Ingenol 3-(1-allyl-2,4-dimethyl-pyrrole-3-carboxylate)]	< 0.02	< 150	< 0.02
CC1=C[C@]23C(=O)[C@@H](C=C(CO)[C@@H](O)[C@]2(O)[C@H]1OC(=O)c1c(C)cn(CC2CC2)c1C)[C@H]1[C@@H](C[C@H]3C)C1(C)C [Compound 588, Ingenol 3-(1-(cyclopropylmethyl)-2,4-dimethyl-pyrrole-3-carboxylate)]	< 0.02	< 150	< 0.02
COCCn1cc(C)c(C(=O)O[C@H]2C(C)=C[C@]34C(=O)[C@@H](C=C(CO)[C@@H](O)[C@]23O)[C@H]2[C@@H](C[C@H]4C)C2(C)C)c1C [Compound 589, Ingenol 3-(1-(2-methoxyethyl)-2,4-dimethyl-pyrrole-3-carboxylate)]	< 0.02	< 150	0.02 to 0.1
